Source: PubChem BioAssay AID256 (DTP/NCI, 2004)
Where “and” joins values, the source holds several entries; their conditions need not be identical. Equal values may be shown once. Inconclusive results and toxic doses are left out. Rule for the calls: active = survival T/C of 150% or more; inactive = T/C below 125% in these data.

Test system: CD2F1 mice, L1210 leukemia ip, survival T/C
Assay: NCI In Vivo Anticancer Drug Screen. Data for tumor model L1210 Leukemia (intraperitoneal) in CD2F1 (CDF1) mice
Settings: higher = longer survival
Method in brief: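 Implant tumor; dose compound or vehicle; measure endpoint in both groups; report treated divided by control.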

[1] = endpoint: mean survival time, dose: 100.0 mg/kg/injection, schedule: Q04DX002 (ip), vehicle: saline with Tween-80
[2] = endpoint: mean survival time, dose: 100.0 mg/kg/injection, schedule: Q01DX009 (ip), vehicle: saline
[3] = endpoint: mean survival time, dose: 200.0 mg/kg/injection, schedule: Q01DX009 (ip), vehicle: saline
[4] = endpoint: mean survival time, dose: 400.0 mg/kg/injection, schedule: Q01DX009 (ip), vehicle: saline
[5] = endpoint: mean survival time, dose: 50.0 mg/kg/injection, schedule: Q01DX009 (ip), vehicle: Klucel (hydroxypropylcellulose) (HPC)
[6] = endpoint: mean survival time, dose: 100.0 mg/kg/injection, schedule: Q01DX009 (ip), vehicle: Klucel (hydroxypropylcellulose) (HPC)
[7] = endpoint: mean survival time, dose: 200.0 mg/kg/injection, schedule: Q01DX009 (ip), vehicle: Klucel (hydroxypropylcellulose) (HPC)
[8] = endpoint: mean survival time, dose: 50.0 mg/kg/injection, schedule: Q01DX009 (ip), vehicle: saline with Tween-80
[9] = endpoint: mean survival time, dose: 100.0 mg/kg/injection, schedule: Q01DX009 (ip), vehicle: saline with Tween-80
[10] = endpoint: mean survival time, dose: 100.0 mg/kg/injection, schedule: Q04DX003 (ip), vehicle: saline with Tween-80
[11] = endpoint: mean survival time, dose: 200.0 mg/kg/injection, schedule: Q04DX003 (ip), vehicle: saline with Tween-80
[12] = endpoint: mean survival time, dose: 400.0 mg/kg/injection, schedule: Q04DX003 (ip), vehicle: saline with Tween-80
[13] = endpoint: mean survival time, dose: 100.0 mg/kg/injection, schedule: Q01DX001 (ip), vehicle: saline with Tween-80
[14] = endpoint: mean survival time, dose: 200.0 mg/kg/injection, schedule: Q01DX001 (ip), vehicle: saline with Tween-80
[15] = endpoint: mean survival time, dose: 200.0 mg/kg/injection, schedule: Q01DX009 (ip), vehicle: saline with Tween-80
[16] = endpoint: mean survival time, dose: 400.0 mg/kg/injection, schedule: Q01DX001 (ip), vehicle: saline with Tween-80
[17] = endpoint: mean survival time, dose: 400.0 mg/kg/injection, schedule: Q01DX009 (ip), vehicle: saline with Tween-80

Measured: T/C

CN1C(=O)CCSC1=S
inactive: endpoint: mean survival time, dose: 25.0 mg/kg/injection, schedule: Q04DX002 (ip), vehicle: saline with Tween-80 94 % of control | endpoint: mean survival time, dose: 50.0 mg/kg/injection, schedule: Q04DX002 (ip), vehicle: saline with Tween-80 105 % of control | [1] 105 % of control

O=C(C[n+]1cc(Br)cc2ccccc21)c1ccc(O)c(O)c1
inactive: [2] 110 % of control | [3] 111 % of control | [4] 102 % of control

Nc1nc2c(ncn2C2OC(COC(=O)Oc3ccccc3)C(O)C2O)c(=O)[nH]1 (stereo unspecified)
inactive: [5] 107 % of control | [6] 96 % of control | [7] 92 % of control

Cc1c2cc(Cl)c3ccccc3c2c[n+]2ccccc12
inactive: endpoint: mean survival time, dose: 3.12 mg/kg/injection, schedule: Q01DX009 (ip), vehicle: saline with Tween-80 102 % of control and 106 % of control | endpoint: mean survival time, dose: 6.25 mg/kg/injection, schedule: Q01DX009 (ip), vehicle: saline with Tween-80 100 % of control and 109 % of control | endpoint: mean survival time, dose: 12.5 mg/kg/injection, schedule: Q01DX009 (ip), vehicle: saline with Tween-80 118 % of control and 102 % of control | endpoint: mean survival time, dose: 25.0 mg/kg/injection, schedule: Q01DX009 (ip), vehicle: saline with Tween-80 114 % of control and 104 % of control | [8] 114 % of control and 110 % of control | [9] 124 % of control and 102 % of control

O=C(/C=N/O)Nc1ccccc1
inactive: [10] 101 % of control | [11] 100 % of control | [12] 95 % of control

COc1ccccc1NC(=O)Oc1ccc(-c2ccccc2)cc1Cl
inactive: [1] 100 % of control | endpoint: mean survival time, dose: 200.0 mg/kg/injection, schedule: Q04DX002 (ip), vehicle: saline with Tween-80 103 % of control | endpoint: mean survival time, dose: 400.0 mg/kg/injection, schedule: Q04DX002 (ip), vehicle: saline with Tween-80 88 % of control

O=C1c2ccccc2C(=O)N1CO
inactive: [13] 108 % of control | [9] 101 % of control | [14] 106 % of control | [15] 97 % of control | [16] 104 % of control | [17] 101 % of control

CC(C)(C)OC(=O)NN=C1CCC(C(C)(C)C)CC1 (stereo unspecified)
inactive: [2] 93 % of control | [3] 91 % of control | [4] 98 % of control

O=C(Nc1ccccc1)c1c(O)[nH]c(=O)[nH]c1=O
inactive: endpoint: median survival time, dose: 25.0 mg/kg/injection, schedule: Q01DX009 (ip), vehicle: saline with Tween-80 112 % of control [middle of 5 runs] | endpoint: median survival time, dose: 50.0 mg/kg/injection, schedule: Q01DX009 (ip), vehicle: saline with Tween-80 124 % of control and 112 % of control and 108 % of control
active: endpoint: median survival time, dose: 200.0 mg/kg/injection, schedule: Q01DX009 (ip), vehicle: saline with Tween-80 166 % of control and 179 % of control and 211 % of control | endpoint: median survival time, dose: 400.0 mg/kg/injection, schedule: Q01DX009 (ip), vehicle: saline with Tween-80 233 % of control

CS(=O)(=O)C(=Cc1ccccc1Cl)S(C)(=O)=O
inactive: [10] 103 % of control | [11] 95 % of control | [12] 101 % of control

O=c1[nH]cc(N=Cc2ccccc2F)c(=O)[nH]1.[Cl][Pt][Cl]
inactive: endpoint: mean survival time, dose: 3.13 mg/kg/injection, schedule: Q04DX003 (ip), vehicle: water 97 % of control | endpoint: mean survival time, dose: 6.25 mg/kg/injection, schedule: Q04DX003 (ip), vehicle: water 96 % of control | endpoint: mean survival time, dose: 12.5 mg/kg/injection, schedule: Q04DX003 (ip), vehicle: water 97 % of control | endpoint: mean survival time, dose: 25.0 mg/kg/injection, schedule: Q04DX003 (ip), vehicle: water 100 % of control | endpoint: mean survival time, dose: 50.0 mg/kg/injection, schedule: Q04DX003 (ip), vehicle: water 97 % of control | endpoint: mean survival time, dose: 100.0 mg/kg/injection, schedule: Q04DX003 (ip), vehicle: water 91 % of control | endpoint: mean survival time, dose: 200.0 mg/kg/injection, schedule: Q04DX003 (ip), vehicle: water 100 % of control

C[Si](C)(C)C1([Si](C)(C)C)SCCCS1
inactive: endpoint: mean survival time, dose: 50.0 mg/kg/injection, schedule: Q01DX009 (ip), vehicle: other 105 % of control | endpoint: mean survival time, dose: 100.0 mg/kg/injection, schedule: Q01DX009 (ip), vehicle: other 105 % of control | endpoint: mean survival time, dose: 200.0 mg/kg/injection, schedule: Q01DX009 (ip), vehicle: other 102 % of control

O=C(O)/C(=C\c1ccccc1)c1ccccc1
inactive: [9] 90 % of control | [15] 101 % of control | [17] 95 % of control

CCN(CC)C(=O)Nc1cc2c3c(c1)CCCN3CCC2
inactive: [10] 98 % of control | [11] 96 % of control | [12] 87 % of control

C1=Nc2c(ccc3ccccc23)CS1
inactive: endpoint: mean survival time, dose: 25.0 mg/kg/injection, schedule: Q04DX002 (ip), vehicle: other 91 % of control | endpoint: mean survival time, dose: 50.0 mg/kg/injection, schedule: Q04DX002 (ip), vehicle: other 95 % of control | endpoint: mean survival time, dose: 100.0 mg/kg/injection, schedule: Q04DX002 (ip), vehicle: other 100 % of control

CC(=O)NC(Cc1ccc(N(CCCl)CCCl)cc1)C(=O)O (stereo unspecified)
inactive: endpoint: mean survival time, dose: 3.12 mg/kg/injection, schedule: Q01DX009 (ip), vehicle: saline 97 % of control | endpoint: mean survival time, dose: 6.25 mg/kg/injection, schedule: Q01DX009 (ip), vehicle: saline 105 % of control | endpoint: mean survival time, dose: 12.5 mg/kg/injection, schedule: Q01DX009 (ip), vehicle: saline 118 % of control

Cc1cc([N+](=O)[O-])ccc1S(=O)(=O)F
inactive: endpoint: mean survival time, dose: 25.0 mg/kg/injection, schedule: Q04DX003 (ip), vehicle: saline with Tween-80 95 % of control | endpoint: mean survival time, dose: 50.0 mg/kg/injection, schedule: Q04DX003 (ip), vehicle: saline with Tween-80 98 % of control | [10] 98 % of control

Cc1ccc(OP(=O)(c2ccccc2)c2ccccc2)cc1
inactive: [10] 98 % of control | [11] 100 % of control | [12] 100 % of control

NC(=S)OCCCCCn1cnc2c(=S)nc[nH]c21
inactive: [13] 95 % of control | [14] 97 % of control | [16] 105 % of control

N#CC1CNC(N)NC1N (stereo unspecified)
inactive: [5] 98 % of control | [6] 91 % of control | [7] 98 % of control

CCCCCCNC(=O)Nc1cccc(Cl)c1C
inactive: [9] 94 % of control | [10] 91 % of control | [15] 94 % of control | [17] 103 % of control | [12] 92 % of control

CCOC(=O)C(C(=O)OCC)C(C)C
inactive: endpoint: mean survival time, dose: 100.0 mg/kg/injection, schedule: Q01DX001 (ip), vehicle: saline 97 % of control | endpoint: mean survival time, dose: 200.0 mg/kg/injection, schedule: Q01DX001 (ip), vehicle: saline 97 % of control | endpoint: mean survival time, dose: 400.0 mg/kg/injection, schedule: Q01DX001 (ip), vehicle: saline 110 % of control

CCOC(=O)Nc1ccc(F)cc1F
inactive: [9] 94 % of control | [15] 94 % of control | [17] 100 % of control

CC(=O)CC(O)(C(F)(F)F)C(F)(F)F
inactive: [8] 101 % of control | [9] 102 % of control | [10] 102 % of control | [15] 101 % of control | [11] 89 % of control

O=C(N/N=C/Cc1ccccc1)c1cc2ccccc2cc1O
inactive: [9] 101 % of control | [15] 95 % of control | [17] 108 % of control

CCOc1ccc(-n2c(=O)c(N=Nc3ccccc3OC)c(O)n(-c3ccc(C)cc3)c2=S)cc1
inactive: [13] 98 % of control | [14] 101 % of control | [16] 97 % of control

O=C(C[n+]1cccc(C(=O)Nc2ccc(Cl)cc2)c1)NCc1ccccc1
inactive: endpoint: mean survival time, dose: 100.0 mg/kg/injection, schedule: Q04DX003 (ip), vehicle: saline 97 % of control | endpoint: mean survival time, dose: 200.0 mg/kg/injection, schedule: Q04DX003 (ip), vehicle: saline 94 % of control | endpoint: mean survival time, dose: 400.0 mg/kg/injection, schedule: Q04DX003 (ip), vehicle: saline 102 % of control
